The text below walks through data of patent US12552748B2, “Pyridine (thio)amides as fungicidal compounds” (Bayer Aktiengesellschaft, priority 2020, dated 2026).

The data set can be described thus: physchem. It is filed as physicochemical. The method, then:
Measurement of Log P values as provided herein was performed according to EEC directive 79/831 Annex V.A8 by HPLC (High Performance Liquid Chromatography) on reversed phase columns with the following methods: […] If more than one Log P value is available within the same method, all the values are given and separated by “+”. Calibration was done with straight-chain alkan2-ones (with 3 to 16 carbon atoms) with known Log P values (measurement of Log P values using retention times with linear interpolation between successive alkanones). Lambda-max-values were determined using UV-spectra from 200 nm to 400 nm and the peak values of the chromatographic signals

Marks after values point to notes of the source that are not given here.

On to `CON=C(C)c1cc(C(=O)NCCc2ccc(C)cc2C)c(Oc2cccc(C(F)(F)F)c2)cn1` (mixture of isomers) [Compound I-251], for which the LogP is 5.36^[a].
In the case of `O=C(NCC(F)c1ccc(Cl)cc1Cl)c1cc(Cl)ncc1Oc1cccc(Cl)c1` (racemic) [Compound I-035], the LogP was 4.80^[a].
With `O=C(NCC(F)c1ccc(Cl)cc1Cl)c1cc(Cl)ncc1Oc1cccc(C(F)F)c1` (racemic) [Compound I-037], the LogP was 4.40^[a].
As for `COc1cccc(Oc2cnc(Cl)cc2C(=O)NCC(F)c2ccc(Cl)cc2Cl)c1` (racemic) [Compound I-041], the LogP is 4.51^[a].
On to `Cc1cccc(Oc2cnc(Cl)cc2C(=O)NCC(F)c2ccc(Cl)cc2Cl)c1` (racemic) [Compound I-043], for which the LogP was 4.92^[a].
In the case of `Cc1cc(C(=O)NCC(F)c2ccc(Cl)cc2Cl)c(Oc2cccc(Cl)c2)cn1` (racemic) [Compound I-053], the LogP is 4.12^[a].
For `Cc1ccc(C(F)CNC(=O)c2cc(C)ncc2Oc2cccc(Cl)c2)c(Cl)c1` (racemic) [Compound I-054], the LogP is 3.98^[a].
Take `Cc1cc(C(=O)NCC(F)c2ccc(Cl)cc2Cl)c(Oc2cccc(C(F)F)c2)cn1` (racemic) [Compound I-055]: the LogP was 3.78^[a].
Same read-out and setting: the value for `Cc1cccc(Oc2cnc(C)cc2C(=O)NCC(F)c2ccc(C)cc2Cl)c1` (racemic) [Compound I-056] was 3.96^[a]; that for `O=C(NCC(F)c1ccc(Cl)cc1Cl)c1cc(Cl)ncc1Oc1cccc(C2CC2)c1F` (racemic) [Compound I-060] was 5.17^[a]; that for `O=C(NCC(F)c1ccc(Cl)cc1Cl)c1cc(Cl)ncc1Oc1cccc(C2CC2)c1` (racemic) [Compound I-063] was 4.92^[a].
In the case of `Cc1ccc(C(F)CNC(=O)c2cc(C)ncc2Oc2cccc(C3CC3)c2)c(Cl)c1` (racemic) [Compound I-073], the LogP was 4.30^[a].
Consider `O=C(NCC(F)c1ccc(Cl)cc1Cl)c1cc(C2CC2)ncc1Oc1cccc(C2CC2)c1F` (racemic) [Compound I-074], for which the LogP was 5.32^[a].
As to `Cc1ccc(C(F)CNC(=O)c2cc(C)ncc2Oc2cccc(C3CC3)c2F)c(Cl)c1` (racemic) [Compound I-076], the LogP is 4.49^[a].
For `Cc1cc(C(=O)NCC(F)c2ccc(Cl)cc2Cl)c(Oc2cccc(C3CC3)c2F)cn1` (racemic) [Compound I-078], the LogP was 4.49^[a].
Consider `Cc1ccc(C(F)CNC(=O)c2cc(Cl)ncc2Oc2cccc(C(F)(F)F)c2)cc1C` (racemic) [Compound I-079], for which the LogP is 4.70^[a].
Take `Cc1cc(C(F)F)ccc1C(F)CNC(=O)c1cc(Cl)ncc1Oc1cccc(C(F)(F)F)c1` (racemic) [Compound I-080]: the LogP was 4.40^[a].
For the compound `COc1cc(C(F)CNC(=O)c2cc(Cl)ncc2Oc2cccc(C(F)(F)F)c2)ccc1Cl` (racemic) [Compound I-081], the LogP was 4.37^[a].
With `O=C(NCC(F)c1ccc(Cl)c(Cl)c1)c1cc(Cl)ncc1Oc1cccc(C(F)(F)F)c1` (racemic) [Compound I-082], the LogP was 4.81^[a].
In the case of `Cc1ccc(C(F)CNC(=O)c2cc(Cl)ncc2Oc2cccc(C(F)(F)F)c2)c(Cl)c1` (racemic) [Compound I-083], the LogP is 4.78^[a].
Consider `Cc1cc(Cl)ccc1C(F)CNC(=O)c1cc(Cl)ncc1Oc1cccc(C(F)(F)F)c1` (racemic) [Compound I-084], for which the LogP is 4.81^[a].
`O=C(NCC(F)c1ccc(C2CC2)cc1Cl)c1cc(Cl)ncc1Oc1cccc(C(F)(F)F)c1` (racemic) [Compound I-085]: the LogP was 5.08^[a].
Same read-out and setting: the value for `Cc1cc(Br)ccc1C(F)CNC(=O)c1cc(Cl)ncc1Oc1cccc(C(F)(F)F)c1` (racemic) [Compound I-086] was 4.93^[a]; that for `O=C(NCC(F)c1ccc(Cl)cc1Cl)c1cc(Cl)nc(F)c1Oc1cccc(C(F)(F)F)c1` (racemic) [Compound I-091] was 5.08^[a]; that for `Cc1cccc(Oc2cnc(C)cc2C(=O)NCC(F)c2ccc(Cl)cc2Cl)c1` (racemic) [Compound I-161] was 4.13^[a].
With `C[Si](C)(C)C#Cc1cc(C(=O)NCC(F)c2ccc(Cl)cc2Cl)c(Oc2cccc(C(F)(F)F)c2)cn1` (racemic) [Compound I-176], the LogP is 6.01^[a].
Turning to `C#Cc1cc(C(=O)NCC(F)c2ccc(Cl)cc2Cl)c(Oc2cccc(C(F)(F)F)c2)cn1` (racemic) [Compound I-189], the LogP is 4.41^[a].
On to `CCc1cc(C(=O)NCC(F)c2ccc(Cl)cc2Cl)c(Oc2cccc(C3CC3)c2)cn1` (racemic) [Compound I-190], for which the LogP was 4.92^[a].
Consider `O=C(NCC(F)c1ccc(Cl)cc1Cl)c1cc(-c2ccncc2Cl)ncc1Oc1cccc(C(F)(F)F)c1` (racemic) [Compound I-195], for which the LogP was 4.68^[a].
Take `Cc1ccc(C(F)CNC(=O)c2cc(C)ncc2Oc2cccc(C(F)(F)F)c2)c(Cl)c1` (racemic) [Compound I-263]: the LogP is 4.08^[a].
Turning to `Cc1ccc(CCNC(=O)c2cc(Cl)ncc2Oc2cccc(C3CC3F)c2)c(C)c1` (single isomer, unassigned) [Compound I-265], the LogP is 4.70^[a].
For the compound `O=C(O)c1cc(Cl)ncc1Oc1cccc(C(F)(F)F)c1` [Compound 1-001], the LogP is 2.84^[a].
In the case of `C#Cc1cc(C(=O)O)c(Oc2cccc(C(F)(F)F)c2)cn1` [Compound 1-002], the LogP is 2.39^[a].
As for `C#Cc1cc(C(=O)OC)c(Oc2cccc(C(F)(F)F)c2)cn1` [Compound 1-003], the LogP was 3.46^[a].
Same read-out and setting: the value for `COC(=O)c1cc(C#C[Si](C)(C)C)ncc1Oc1cccc(C(F)(F)F)c1` [Compound 1-004] was 5.35^[a]; that for `O=C(O)c1cc(Cl)ncc1Oc1cccc(Cl)c1` [Compound 1-005] was 2.76^[a].
With `O=C(O)c1cc(Cl)ncc1Oc1cccc(C(F)F)c1` [Compound 1-006], the LogP was 2.48^[a].
Take `COc1cccc(Oc2cnc(Cl)cc2C(=O)O)c1` [Compound 1-007]: the LogP is 2.34^[a].
Same read-out and setting: the value for `Cc1cccc(Oc2cnc(Cl)cc2C(=O)O)c1` [Compound 1-008] was 2.60^[a]; that for `O=C(O)c1cc(Cl)ncc1Oc1cccc(C2CC2)c1F` [Compound 1-009] was 2.97^[a]; that for `O=C(O)c1cc(Cl)ncc1Oc1cccc(C2CC2)c1` [Compound 1-010] was 2.87^[a].
`CC(=O)c1cc(C(=O)O)c(Oc2cccc(C(F)(F)F)c2)cn1` [Compound 1-011, 2-acetyl-5-[3-(trifluoromethyl)phenoxy]pyridine-4-carboxylic acid] yielded a chromatographic logP of 2.54.
As for `COC(=O)c1cc(C(C)=O)ncc1Oc1cccc(C(F)(F)F)c1` [Compound 1-012, methyl 2-acetyl-5-[3-(trifluoromethyl)phenoxy]pyridine-4-carboxylate], the chromatographic logP amounted to 3.59.
Take `C=C(OCC)c1cc(C(=O)OC)c(Oc2cccc(C(F)(F)F)c2)cn1` [Compound 1-013, methyl 2-(1-ethoxyvinyl)-5-[3-(trifluoromethyl)phenoxy]pyridine-4-carboxylate]: the chromatographic logP is 4.7.

A word on the chromatographic logP: it is a lipophilicity value derived from retention on a column. A high value points to a more lipophilic compound.
